Holding throughout (format): biochemical
Test [1] deals with T1, ROCK1 (Homo sapiens, UniProt Q13464). The test can be described thus: In vitro Rho kinase inhibitory activity assay, ADP-Glo, Method A (ATP 10 μM). To be noted: read-out: Method A ROCK 1 (Ki). How it is done:
(§1) In Vitro Inhibitory Activity Assay Description (Method A)
(§2) The effectiveness of compounds of the present invention to inhibit Rho kinase activity can be determined in a 10 μL assay containing 40 mM Tris pH7.5, 20 mM MgCl2 0.1 mg/mL BSA, 50 μM DTT and 2.5 μM peptide substrate (Myelin Basic Protein) using an ADP-Glo kit (Promega). Compounds were dissolved in DMSO such that the final concentration of DMSO was 1% in the assay. All reactions/incubations are performed at 25° C. Compound (2 μL) and either Rho kinase 1 or 2 (4 μL) were mixed and incubated for 30 min. Reactions were initiated by addition of ATP (4 μL) such that the final concentration of ATP in the assay was 10 μM. After a 1 hour incubation 10 μL of ADP-Glo Reagent was added and after a further 45 minute incubation 20 μL of Kinase Detection Buffer was added and the mixture incubated for a further 30 minutes. The luminescent signal was measured on a luminometer. […] Compounds were tested in dose-response format and the inhibition of kinase activity was calculated at each concentration of compound. To determine the IC50 (concentration of compound required to inhibit 50% of the enzyme activity) data were fit to a plot of % inhibition vs Log10 compound concentration using a sigmoidal fit with a variable slope and fixing the maximum to 100% and the minimum to 0%. To determine the Ki values the Cheng-Prusoff equation was utilized (Ki=IC50/(1+[S]/Km).
(In general: ADP-Glo first removes unused ATP, then detects ADP through luciferase.)

In test [2] the target is T2, ROCK2 (Homo sapiens, UniProt O75116). The description is as above. The settings on record: read-out: Method A ROCK 2 (Ki). As for the experimental part:
as §1, §2

The next test has as its target PKA (Homo sapiens, UniProt P17612). The test can be described thus: In vitro inhibitory activity assay for PKA, ADP-Glo, reported as selectivity ratio vs ROCK2. To be noted: Ki for PKA divided by Ki of ROCK2 (Method B). How it is done:
In Vitro Inhibitory Activity Assay Description for PKA
The effectiveness of compounds of the present invention to inhibit PKA activity can be determined in a 10 μL assay containing 40 mM Tris pH7.5, 20 mM MgCl2 0.1 mg/mL BSA, 50 μM DTT and 260 μM peptide substrate (kemptide) using an ADP-Glo kit (Promega). Compounds were dissolved in DMSO such that the final concentration of DMSO was 1% in the assay. All reactions/incubations are performed at 25° C. Compound and PKA enzyme (6 μL) were mixed and incubated for 30 min. Reactions were initiated by addition of ATP (4 μL) such that the final concentration of ATP in the assay was 10 μM. After a 30 minute incubation 10 μL of ADP-Glo Reagent was added and after a further 1 hour incubation 20 μL of Kinase Detection Buffer was added and the mixture incubated for a further 45 minutes. The luminescent signal was measured on a luminometer. […] Compounds were tested in dose-response format and the inhibition of kinase activity was calculated at each concentration of compound. To determine the IC50 (concentration of compound required to inhibit 50% of the enzyme activity) data were fit to a plot of % inhibition vs Log10 compound concentration using a sigmoidal fit with a variable slope and fixing the maximum to 100% and the minimum to 0%. To determine the Ki values the Cheng-Prusoff equation was utilized (Ki=IC50/(1+[S]/Km).
In vitro inhibitory activities for PKA were reported as selectivity ratio vs. ROCK2. Selectivity ratio PKA/ROCK2 was calculated by dividing the Ki value for PKA by Ki value of ROCK2 (Method B) and reported into table 1.

For test [3], the target named is T1, ROCK1. Nature of the test: In vitro Rho kinase inhibitory activity assay, ADP-Glo, Method B (ATP 200 μM). To be noted: read-out: Method B ROCK 1 (Ki). In a few lines:
(§3)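 Enzyme preincubated 30 min with compound in 40 mM Tris pH 7.5, 20 mM MgCl2, 0.1 mg/mL BSA, 50 μM DTT, 2.5 μM myelin basic protein, 1% DMSO, 25 °C; 1 h reaction at 200 μM ATP. ADP-Glo luminescence; IC50 from variable-slope sigmoidal fit (0–100% fixed), Ki via Cheng-Prusoff.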

Test [4] concerns the target T2, ROCK2. The description is as above. The settings on record: read-out: Method B ROCK 2 (Ki). In a few lines: as §3

T2 sequence (O75116 whole entry): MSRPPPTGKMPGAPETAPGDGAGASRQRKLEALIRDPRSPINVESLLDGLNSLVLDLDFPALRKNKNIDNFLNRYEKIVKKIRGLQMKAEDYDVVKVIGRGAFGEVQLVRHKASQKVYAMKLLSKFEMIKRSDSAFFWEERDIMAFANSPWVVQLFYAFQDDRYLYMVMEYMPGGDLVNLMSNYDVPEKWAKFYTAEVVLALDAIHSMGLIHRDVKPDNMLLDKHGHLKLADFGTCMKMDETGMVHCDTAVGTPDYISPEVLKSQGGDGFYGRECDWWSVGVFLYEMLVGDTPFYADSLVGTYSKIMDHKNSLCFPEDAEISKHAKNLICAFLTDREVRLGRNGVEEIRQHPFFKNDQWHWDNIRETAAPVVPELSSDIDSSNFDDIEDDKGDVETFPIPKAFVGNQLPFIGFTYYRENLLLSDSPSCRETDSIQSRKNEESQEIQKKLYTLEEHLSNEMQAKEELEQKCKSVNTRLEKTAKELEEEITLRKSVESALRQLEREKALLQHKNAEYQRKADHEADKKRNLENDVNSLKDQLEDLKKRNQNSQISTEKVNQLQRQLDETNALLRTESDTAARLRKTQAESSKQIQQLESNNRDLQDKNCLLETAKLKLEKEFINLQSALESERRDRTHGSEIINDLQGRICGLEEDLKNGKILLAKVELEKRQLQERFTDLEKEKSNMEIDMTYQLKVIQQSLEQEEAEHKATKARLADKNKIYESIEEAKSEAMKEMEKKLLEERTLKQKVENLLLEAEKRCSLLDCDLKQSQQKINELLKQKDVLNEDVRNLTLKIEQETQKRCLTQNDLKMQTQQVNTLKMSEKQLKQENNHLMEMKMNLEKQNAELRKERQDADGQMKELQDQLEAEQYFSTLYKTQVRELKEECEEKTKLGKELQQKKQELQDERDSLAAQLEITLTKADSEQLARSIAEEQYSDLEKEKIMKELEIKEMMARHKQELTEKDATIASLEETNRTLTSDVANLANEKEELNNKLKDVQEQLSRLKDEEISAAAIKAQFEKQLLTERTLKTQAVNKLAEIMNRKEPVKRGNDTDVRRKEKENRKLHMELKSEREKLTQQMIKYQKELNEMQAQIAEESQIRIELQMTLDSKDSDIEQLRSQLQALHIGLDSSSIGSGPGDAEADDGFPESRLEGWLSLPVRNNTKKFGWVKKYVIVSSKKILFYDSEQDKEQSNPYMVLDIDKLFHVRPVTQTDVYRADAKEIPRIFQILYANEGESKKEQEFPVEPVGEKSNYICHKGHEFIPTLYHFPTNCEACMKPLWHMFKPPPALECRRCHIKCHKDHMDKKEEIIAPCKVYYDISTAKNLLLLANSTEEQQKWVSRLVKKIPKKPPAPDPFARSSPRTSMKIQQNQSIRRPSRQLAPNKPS
T1 sequence (Q13464 whole entry): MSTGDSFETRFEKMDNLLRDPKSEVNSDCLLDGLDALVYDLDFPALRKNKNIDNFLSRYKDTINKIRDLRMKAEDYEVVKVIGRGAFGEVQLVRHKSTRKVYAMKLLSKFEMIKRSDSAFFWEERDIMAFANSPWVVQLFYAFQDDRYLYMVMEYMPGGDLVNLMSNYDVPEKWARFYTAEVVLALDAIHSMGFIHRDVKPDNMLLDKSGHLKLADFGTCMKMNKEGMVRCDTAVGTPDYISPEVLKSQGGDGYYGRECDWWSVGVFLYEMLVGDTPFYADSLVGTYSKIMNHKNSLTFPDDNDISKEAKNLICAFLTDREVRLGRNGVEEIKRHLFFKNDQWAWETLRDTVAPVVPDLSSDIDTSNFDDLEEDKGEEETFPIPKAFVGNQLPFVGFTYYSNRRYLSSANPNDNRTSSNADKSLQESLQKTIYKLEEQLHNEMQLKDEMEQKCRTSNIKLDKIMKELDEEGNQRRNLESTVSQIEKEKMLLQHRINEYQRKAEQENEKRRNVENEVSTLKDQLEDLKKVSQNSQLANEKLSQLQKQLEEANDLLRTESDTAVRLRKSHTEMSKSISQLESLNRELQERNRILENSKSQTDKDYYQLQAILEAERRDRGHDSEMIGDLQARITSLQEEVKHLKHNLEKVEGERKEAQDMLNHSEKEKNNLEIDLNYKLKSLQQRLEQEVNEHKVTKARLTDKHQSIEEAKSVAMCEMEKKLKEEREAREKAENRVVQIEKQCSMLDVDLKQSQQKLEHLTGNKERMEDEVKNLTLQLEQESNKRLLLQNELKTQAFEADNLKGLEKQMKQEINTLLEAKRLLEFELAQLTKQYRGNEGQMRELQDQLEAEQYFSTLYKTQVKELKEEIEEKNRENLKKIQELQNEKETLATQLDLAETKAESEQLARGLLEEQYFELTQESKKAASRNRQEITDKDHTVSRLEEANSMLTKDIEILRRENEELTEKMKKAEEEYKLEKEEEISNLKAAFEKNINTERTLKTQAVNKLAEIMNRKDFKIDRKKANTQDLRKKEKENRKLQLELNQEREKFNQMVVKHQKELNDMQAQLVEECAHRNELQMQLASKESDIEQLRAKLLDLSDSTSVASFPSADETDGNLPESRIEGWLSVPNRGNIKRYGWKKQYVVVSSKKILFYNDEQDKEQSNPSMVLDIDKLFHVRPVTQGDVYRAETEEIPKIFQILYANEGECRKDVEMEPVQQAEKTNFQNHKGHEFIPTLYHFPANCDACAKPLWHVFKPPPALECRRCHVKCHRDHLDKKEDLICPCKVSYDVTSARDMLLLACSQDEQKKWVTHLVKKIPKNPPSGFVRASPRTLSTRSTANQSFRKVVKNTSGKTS

In general, Ki refers to a dissociation constant, usually derived from enzyme kinetics or from competition with a known ligand. With `O=C(Nc1cccc(CNc2ncc(-c3ccncc3)c3c2CCO3)c1)c1ccc(CN2CCOCC2)cc1` [Example 36, 4-(morpholinomethyl)-N-(3-(((7-(pyridin-4-yl)-2,3-dihydrofuro[3,2-c]pyridin-4-yl)amino)methyl)phenyl)benzamide], the Ki on ROCK1 [1], on ROCK2 [2], at ROCK1 [3] and on ROCK2 [4] was at most 3 nM each time. For the same compound, the “Ratio (PKA/ROCK2)” value on PKA is reported as “*** (ratio≥10)”.

Consider `O=C(NCCN1CCCCC1)c1cccc(CNc2ncc(-c3ccncc3)c3c2CCO3)c1` [Example 30, N-(2-(piperidin-1-yl)ethyl)-3-(((7-(pyridin-4-yl)-2,3-dihydrofuro[3,2-c]pyridin-4-yl)amino)methyl)benzamide], for which the inhibitory constant (Ki) is at most 3 nM at ROCK1 [1], at most 3 nM at ROCK2 [2], 3 to 30 nM at ROCK1 [3] and 3 to 30 nM on ROCK2 [4]. For the same compound, at PKA, the “Ratio (PKA/ROCK2)” value is listed as “*** (ratio≥10)”.

Consider `CN1CCN(CCCC(=O)Nc2cccc(CNc3ncc(-c4ccncc4)c4c3CCO4)c2)CC1` [Example 35, 4-(4-methylpiperazin-1-yl)-N-(3-(((7-(pyridin-4-yl)-2,3-dihydrofuro[3,2-c]pyridin-4-yl)amino)methyl)phenyl)butanamide], for which the Ki on ROCK1 [1], on ROCK2 [2], on ROCK1 [3] and on ROCK2 [4] was at most 3 nM throughout. For the same compound, at PKA, the “Ratio (PKA/ROCK2)” value was “*** (ratio≥10)”.

Regarding `CNC(=O)c1cccc(CNc2ncc(-c3ccncc3)c3c2CCO3)c1` [Example 20, N-methyl-3-(((7-(pyridin-4-yl)-2,3-dihydrofuro[3,2-c]pyridin-4-yl)amino)methyl)benzamide], the inhibitory constant (Ki) on ROCK1 [1], at ROCK2 [2], at ROCK1 [3] and on ROCK2 [4] was 3 to 30 nM throughout. For the same compound, the “Ratio (PKA/ROCK2)” value at PKA was “*** (ratio≥10)”.

On to `CN1CCC(CCNC(=O)c2cccc(CNc3ncc(-c4ccncc4)c4c3CCO4)c2)CC1` [Example 22, N-(2-(1-methylpiperidin-4-yl)ethyl)-3-(((7-(pyridin-4-yl)-2,3-dihydrofuro[3,2-c]pyridin-4-yl)amino)methyl)benzamide], for which the Ki at ROCK1 [1], on ROCK2 [2], at ROCK1 [3] and at ROCK2 [4] was at most 3 nM each time. The “Ratio (PKA/ROCK2)” value at PKA was “*** (ratio≥10)”.

As for `CN1CCc2sc(C(=O)Nc3cccc(CNc4ncc(-c5ccncc5)c5c4CCO5)c3)nc2C1` [Example 54, 5-methyl-N-(3-(((7-(pyridin-4-yl)-2,3-dihydrofuro[3,2-c]pyridin-4-yl)amino)methyl)phenyl)-4,5,6,7-tetrahydrothiazolo[4,5-c]pyridine-2-carboxamide], the Ki at ROCK1 [1], on ROCK2 [2], on ROCK1 [3] and on ROCK2 [4] was at most 3 nM in each case. The “Ratio (PKA/ROCK2)” value on PKA is on record as “*** (ratio≥10)”.

`c1ccc(CNc2ncc(-c3ccncc3)c3c2CCO3)cc1` [Example A, N-Benzyl-7-(pyridin-4-yl)-2,3-dihydrofuro[3,2-c]pyridin-4-amine, reference compound]: the inhibition constant Ki at ROCK1 [1], at ROCK2 [2], at ROCK1 [3] and at ROCK2 [4] was above 30 nM in each case. The “Ratio (PKA/ROCK2)” value on PKA was “* (ratio<5)”.

For `O=C(NCCN1CCOCC1)c1cccc(CNc2ncc(-c3ccncc3)c3c2CCO3)c1` [Example 28, N-(2-morpholinoethyl)-3-(((7-(pyridin-4-yl)-2,3-dihydrofuro[3,2-c]pyridin-4-yl)amino)methyl)benzamide], the Ki on ROCK1 [1] was at most 3 nM; on ROCK2 [2], at most 3 nM; on ROCK1 [3], 3 to 30 nM; on ROCK2 [4], 3 to 30 nM. Moreover, the “Ratio (PKA/ROCK2)” value on PKA is recorded as “*** (ratio≥10)”.

The values are drawn from patent US12534474B2, “Dihydrofuropyridine derivatives as rho-kinase inhibitors” (CHIESI FARMACEUTICI S.P.A., priority 2020, dated 2026).
